Measured values as given in PMC12586598, “A novel long-acting C5a-blocking cyclic peptide prevents sepsis-induced organ dysfunction via effective blockade of the inflammatory cascade” (Signal Transduction and Targeted Therapy, 2025).
Where a SMILES comes first, the peptide text is derived from it.

System: CLP-induced septic mice
Assay: Inflammatory factors and chemokines in plasma, Luminex, CLP mice
Assay type: in vivo, mouse
Protocol: Twenty-four hours later, whole blood and PLF were collected under anesthesia. The plasma and PLF supernatants were further isolated via centrifugation (3000 × g, 10 min, 4 °C) and subjected to inflammatory factor and chemokine profiling via the Luminex® multiplex […] Biotechnologies, Shanghai, China). The percent inhibition was calculated relative to that of the sham group (set as 0%).

[1] = 100 μg/20 g, 24 h after CLP surgery

In the case of `CSCC[C@@H]1NC(=O)[C@@H]2CCCN2C(=O)[C@H](CCSC)NC(=O)[C@H](CO)NC(=O)[C@H](Cc2c[nH]cn2)NC(=O)CNC(=O)[C@H](CO)NC(=O)[C@H](Cc2ccccc2)NC(=O)[C@H](CCCNC(=N)N)NC(=O)[C@H](CCC(=O)O)NC(=O)[C@H](Cc2ccccc2)NC(=O)[C@H](C(C)C)NC1=O` [Cp1] (cyclo(HSMPMVFERFSG)), the “decrease in plasma CCL2 level” value [1] is reported as 21.7 fold, the “decrease in plasma CCL3 level” value [1] is reported as 81.9 fold and the “decrease in plasma CCL4 level” value [1] is reported as 24.8 fold. The “decrease in plasma CCL5 level” value [1] was 18.6 fold, the “decrease in plasma CCL7 level” value [1] was 102.3 fold and the “decrease in plasma CXCL1 level” value [1] was 61.7 fold. For the same compound, the “decrease in plasma CXCL5 level” value [1] was 4.3 fold, the “decrease in plasma IL-1β level vs CLP group” value [1] was 94% and the “decrease in plasma IL-6 level vs CLP group” value [1] was 99%. The “decrease in plasma TNF-α level vs CLP group” value [1] was 86%, the “reduction in plasma IL-1β level” value (100 μg/20 g, Luminex (Fig. 4a)) was 18.6 fold and the “expression of inflammatory factors and chemokines in plasma, high dose” value (300 μg of Cp1) was “effectively suppressed”. For the same compound, the “plasma IL-17A, IFN-γ, GM-CSF, and CX3CL1 levels” value (24 h after CLP surgery) was “significantly decreased” and the “lowest effective dose with significant pharmacological activity” value (preliminary titrations) was 100 μg.
